In ChEMBL document CHEMBL3822437, “N,N-Bis(glycityl)amines as anti-cancer drugs” (Bioorg Med Chem, 2016):

What was measured:
[1] = Antiproliferative activity against human LN18 cells after 48 hrs by MTT assay; type: functional, cell-based; settings: LN-18, 48 h
[2] = Antiproliferative activity against human THP1 cells after 48 hrs by MTT assay; type: functional, cell-based; settings: THP-1, 48 h
[3] = tested on: HEK293; experiment: Antiproliferative activity against HEK293 cells after 48 hrs by MTT assay; type: cell-based; settings: Homo sapiens, HEK293, 48 h
[4] = Antiproliferative activity against human SVGp12 cells after 48 hrs by MTT assay; type: cell-based; settings: SVGp12, 48 h
[5] = cells; settings: Homo sapiens, HL-60, 48 h
Description: Antiproliferative activity against human HL60 cells after 48 hrs by MTT assay

[6] = Selectivity index, ratio of IC50 for human SVGp12 cells to IC50 for human LN18 cells; type: functional
[7] = tested on: HEK293; experiment: Selectivity index, ratio of IC50 for HEK293 cells to IC50 for human HL60 cells; type: functional

Structure (SMILES) | IC50 [1] [µM] | IC50 [2] [µM] | IC50 [3] [µM] | IC50 [4] [µM] | IC50 [5] [µM] | Ratio IC50 [6] | Ratio IC50 [7]
COc1cccc2c1C(=O)c1c(O)c3c(c(O)c1C2=O)C[C@@](O)(C(=O)CO)C[C@@H]3O[C@H]1C[C@H](N)[C@H](O)[C@H](C)O1 [DOXORUBICIN] | 68.9 | 7.19 | 44.4 | 4.21 | 5.5 |  | 
OC[C@@H](O)[C@@H](O)[C@H](O)[C@@H](O)CN(CCc1ccccc1)C[C@H](O)[C@@H](O)[C@H](O)[C@H](O)CO | 290 |  |  | 212 | 91.3 | 0.731 | 
OC[C@@H](O)[C@@H](O)[C@H](O)CN(CCc1ccccc1)C[C@@H](O)[C@H](O)[C@H](O)CO | 257 |  | 230 | 222 | 121 | 0.864 | 1.9
OC[C@@H](O)[C@H](O)[C@@H](O)CN(CCc1ccccc1)C[C@H](O)[C@@H](O)[C@H](O)CO | 255 |  | 215 |  | 136 |  | 1.58
CCCCCCCCCCCCCCCCN(CC[C@@H](O)[C@H](O)[C@H](O)CO)CC[C@@H](O)[C@H](O)[C@H](O)CO | 50.6 |  |  |  | 6.66 |  | 
C[S+](C)[O-] [DIMETHYL SULFOXIDE] | 223 | 119 | 232 | 229 | 108 | 1.03 | 2.15
OC[C@@H](O)[C@@H](O)[C@@H](O)CN(CCc1ccccc1)C[C@H](O)[C@H](O)[C@H](O)CO | 205 |  |  |  | 89.4 |  | 
CCCCCCCCCCCCCCCCN(CC[C@H](O)[C@H](O)CO)CC[C@H](O)[C@H](O)CO | 30.5 |  | 31.1 | 26.6 | 6.44 | 0.872 | 4.83
